Results from paper PMC13083723 (Patterns, 2026).

These molecules were tested on Vero-E6 cells (assay: cells). Settings: Chlorocebus sabaeus, Vero C1008, 24 h, read-out: PL_Result.
Type: cell-based

SMILES | activation at 10 µM [%]
Nc1nc(NC2CC2)cc(-c2cccc(Cl)c2Cl)n1 [SPE_K01054709] | -5.46
CCN(c1ccccc1)c1cc(NC)[n+](C)c(C)n1 [SPE_K18678457] | -5.38
O=C(Cn1c(=O)sc2ccc(Cl)cc21)N1CCN(CCO)CC1 [SPE_K27293958] | 2.56
Nc1ncnc2c1ncn2[C@@H]1O[C@H](CO)[C@@H](O)[C@H]1O [SPE_K01577834] | -3.02
CC(CN(C)C)C(C)(O)Cc1ccc(Cl)cc1 (stereo not shown) [SPE_A43809092] | -8.69
O=S(=O)(NCC1CC1)c1ccc(Nc2nccc(N3CCCc4cc(O)ccc43)n2)cc1 [SPE_K94659840] | 3.48
CCCCCCCCCCCCCCCC(=O)OC(CC(=O)O)C[N+](C)(C)C (stereo not shown) [SPE_A77577770] | 3.73
CCc1ccc(CCOc2ccc(CC3SC(=O)NC3=O)cc2)nc1 (stereo not shown) [SPE_A48430263] | -1.25
CC(=O)O[C@]1(C(C)=O)CC[C@H]2[C@@H]3CCC4=CC(=O)CCC4=C3[C@@H](c3ccc(N(C)C)cc3)C[C@@]21C [SPE_K76197012] | -4.74
COc1cc2ncnc(Nc3cccc(Cl)c3F)c2cc1OC(=O)N1CCN(C)C[C@H]1C [SPE_K41626799] | -12.8
CC(=O)c1ccc2c(c1)N(CCCN1CCN(CCO)CC1)c1ccccc1S2 [SPE_K42938903] | 52.6
NC(C(=O)O)c1cc(O)cc(O)c1 (stereo not shown) [SPE_A20589515] | 2.18
CC(C)Oc1ccc(-c2nc(-c3cccc4c3CC[C@@H]4NCCO)no2)cc1C#N [SPE_K46625559] | -0.603
CC(=O)Nc1ccc(OC[C@](C)(O)C(=O)Nc2ccc([N+](=O)[O-])c(C(F)(F)F)c2)cc1 [SPE_K82164249] | -13.9
CC(C(=O)O)c1cccc(Oc2ccccc2)c1 (stereo not shown) [SPE_A81129465] | 5.17
CCN(CC)Cc1ccc2cc(COC(=O)Nc3ccc(C(=O)NO)cc3)ccc2c1 [SPE_K13810148] | -13.8
O=C1C=CC[C@@H]2[C@H]3CCCN4CCC[C@@H](CN12)[C@@H]34 [SPE_K66845263] | -5.47

SMILES | activation at 10 µM [%]
C[C@H](NC(=O)/C(C#N)=C/c1ccc(O)c(O)c1)c1ccccc1 [SPE_K17415526] | -1.61
CCOC(=O)[C@@H](N)Cc1ccc(O)c(O)c1 [SPE_K90982969] | -3.7
CCn1cnc2c(Nc3cccc(Cl)c3)nc(N[C@@H]3CCCC[C@@H]3N)nc21 [SPE_K56239177] | 0.0914
O=C(NC[C@H](O)CO)c1ccncc1Nc1ccc(I)cc1F [SPE_K89014967] | -12.6
O=C(O)c1cn(-c2ccc(F)cc2)c2cc(N3CCNCC3)c(F)cc2c1=O [SPE_K08525451] | -3.13
Cc1ccc(N2CCN(CCC3NC(=O)c4ccccc43)CC2)cc1C (stereo not shown) [SPE_A82013137] | -6.23
CN(C)C(=O)Oc1cc(OC(=O)N(C)C)cc(C(O)CNC(C)(C)C)c1 (stereo not shown) [SPE_A17462676] | -4.78
COC(=O)CCC(=O)CN [SPE_K01292611] | -7.57
CCc1c(C(=O)C(N)=O)c2c(OCC(=O)O)cccc2n1Cc1ccccc1 [SPE_K09711437] | -15.1
CC(CCc1ccccc1)NC(C)C(O)c1ccc(O)cc1 (stereo not shown) [SPE_A36267905] | -4.99
N#Cc1cnc2cnc(NCc3cccnc3)cc2c1Nc1ccc(F)c(Cl)c1 [SPE_K51776215] | 4.19
COc1cc2ncnc(Nc3ccc(Oc4ccccc4)cc3)c2cc1OC [SPE_K50495309] | -8.17
CCN(C(=O)c1c(O)c2c(Cl)cccc2n(C)c1=O)c1ccccc1 [SPE_K60918217] | -1.53
CCn1cc(C(=O)O)c(=O)c2cc(F)c(N3CCNC(C)C3)c(F)c21 (stereo not shown) [SPE_A75850590] | -1.78
Cn1ncc2c(N3CCOCC3)nc(-c3cccc(O)c3)nc21 [SPE_K15858023] | -6.72
Cc1cc(/C=C/C#N)cc(C)c1Nc1ccnc(Nc2ccc(C#N)cc2)n1 [SPE_K06240250] | -8.07
CC(=O)Oc1cc2c(s1)CCN(C(C(=O)C1CC1)c1ccccc1F)C2 (stereo not shown) [SPE_A83029242] | -4.76
